According to US20250296953A1, “3,4-THIAZOLO-STEROIDS AND METHODS OF MAKING AND USING THE SAME” (Arkansas State University - Jonesboro, priority 2018, published 2025):
Like-named read-outs stand apart in the source and are kept apart here.

Assays:
gliosarcoma (SF-539) = assay: NCI 60 five dose screen
[1] = tested on: 60 different human tumor cell lines; assay: cells
HCT-15 (Colon Cancer) = assay: NCI 60 one dose screen; assay type: cell-based, human

## C[C@]12CC[C@H]3[C@@H](CC=C4c5sc(-c6ccc(O)cc6)nc5CC[C@@]43C)[C@@H]1CC[C@@H]2O [III.5, (1S,2R,13R,14S,17S,18S)-7-(4-hydroxyphenyl)-2,18-dimethyl-8-thia-6-azapentacyclo[11.7.0.02,10.05,9.014,18]icosa-5(9),6,10-trien-17-ol]
Gliosarcoma (SF-539); Homo sapiens, SF-539
  GI50: 0.454 µM
Gliosarcoma (SF-539); Homo sapiens, SF-539, read-out: LC50
  CC50: 91.7 µM
Gliosarcoma (SF-539); SF-539 (CNS Cancer), five dose
  TGI: 3.23E−6
[1]; 786-0
  GI50: 0.423 µM
[1]; 786-0, read-out: LC50
  CC50: 21.2 µM
[1]; A498
  GI50: 3.51 µM
[1]; A498, read-out: LC50
  CC50: > 100 µM
[1]; A549
  GI50: 5.95 µM
[1]; A549, read-out: LC50
  CC50: > 100 µM
[1]; ACHN
  GI50: 7.55 µM
[1]; ACHN, read-out: LC50
  CC50: > 100 µM
[1]; BT-549
  GI50: 1.14 µM
[1]; BT-549, read-out: LC50
  CC50: > 100 µM
[1]; CAKI-1
  GI50: 4.12 µM
[1]; CAKI-1, read-out: LC50
  CC50: > 100 µM
[1]; CCRF-CEM
  GI50: 2.05 µM
[1]; CCRF-CEM, read-out: LC50
  CC50: > 100 µM
[1]; COLO 205
  GI50: 9.14 µM
[1]; COLO 205, read-out: LC50
  CC50: > 100 µM
[1]; DU-145
  GI50: 9.54 µM
[1]; DU-145, read-out: LC50
  CC50: > 100 µM
[1]; EKVX
  GI50: 7.29 µM
[1]; EKVX, read-out: LC50
  CC50: > 100 µM
[1]; HCC 2998
  GI50: 31.9 µM
[1]; HCC 2998, read-out: LC50
  CC50: > 100 µM
[1]; HCT-15
  GI50: 2.43 µM
[1]; HCT-15, read-out: LC50
  CC50: > 100 µM
[1]; HCT-116
  GI50: 2.37 µM
[1]; HCT-116, read-out: LC50
  CC50: > 100 µM
[1]; HL-60
  GI50: 4.08 µM
[1]; HL-60, read-out: LC50
  CC50: > 100 µM
[1]; HOP-62
  GI50: 5.25 µM
[1]; HOP-62, read-out: LC50
  CC50: > 100 µM
[1]; HT-29
  GI50: 3.13 µM
[1]; HT-29, read-out: LC50
  CC50: > 100 µM
[1]; Hs-578T
  GI50: 1.59 µM
[1]; Hs-578T, read-out: LC50
  CC50: > 100 µM
[1]; IGROV-1
  GI50: 11.1 µM
[1]; IGROV-1, read-out: LC50
  CC50: > 100 µM
[1]; K562
  GI50: 3.48 µM
[1]; K562, read-out: LC50
  CC50: > 100 µM
[1]; KM12
  GI50: 7.24 µM
[1]; KM12, read-out: LC50
  CC50: > 100 µM
[1]; LOX IMVI
  GI50: 2.67 µM
[1]; LOX IMVI, read-out: LC50
  CC50: > 100 µM
[1]; M14
  GI50: 2.86 µM
[1]; M14, read-out: LC50
  CC50: > 100 µM
[1]; MCF7
  GI50: 3.34 µM
[1]; MCF7, read-out: LC50
  CC50: > 100 µM
[1]; MDA-MB-231
  GI50: 6.98 µM
[1]; MDA-MB-231, read-out: LC50
  CC50: > 100 µM
[1]; MDA-MB-435
  GI50: 16.4 µM
[1]; MDA-MB-435, read-out: LC50
  CC50: > 100 µM
[1]; MDA-MB-468
  GI50: 5.13 µM
[1]; MDA-MB-468, read-out: LC50
  CC50: > 100 µM
[1]; MOLT-4
  GI50: 1.93 µM
[1]; MOLT-4, read-out: LC50
  CC50: > 100 µM
[1]; Malme-3M
  GI50: 3.76 µM
[1]; Malme-3M, read-out: LC50
  CC50: > 100 µM
[1]; NCI-H23
  GI50: 14 µM
[1]; NCI-H23, read-out: LC50
  CC50: > 100 µM
[1]; NCI-H226
  GI50: 27.4 µM
[1]; NCI-H226, read-out: LC50
  CC50: > 100 µM
[1]; NCI-H322M
  GI50: 31.1 µM
[1]; NCI-H322M, read-out: LC50
  CC50: > 100 µM
[1]; NCI-H460
  GI50: 4.94 µM
[1]; NCI-H460, read-out: LC50
  CC50: > 100 µM
[1]; NCI-H522
  GI50: 22.6 µM
[1]; NCI-H522, read-out: LC50
  CC50: > 100 µM
[1]; NCI/ADR-RES
  GI50: 6.77 µM
[1]; NCI/ADR-RES, read-out: LC50
  CC50: > 100 µM
[1]; OVCAR-3
  GI50: 8.67 µM
[1]; OVCAR-3, read-out: LC50
  CC50: > 100 µM
[1]; OVCAR-4
  GI50: 7.24 µM
[1]; OVCAR-4, read-out: LC50
  CC50: > 100 µM
[1]; OVCAR-5
  GI50: 13.3 µM
[1]; OVCAR-5, read-out: LC50
  CC50: > 100 µM
[1]; OVCAR-8
  GI50: 40.9 µM
[1]; OVCAR-8, read-out: LC50
  CC50: > 100 µM
[1]; RXF 393
  GI50: 0.377 µM
[1]; RXF 393, read-out: LC50
  CC50: 8.58 µM
[1]; SF-268
  GI50: 5.32 µM
[1]; SF-268, read-out: LC50
  CC50: > 100 µM
[1]; SK-MEL-2
  GI50: 4.42 µM
[1]; SK-MEL-2, read-out: LC50
  CC50: > 100 µM
[1]; SK-MEL-5
  GI50: 3.15 µM
[1]; SK-MEL-5, read-out: LC50
  CC50: 48.5 µM
[1]; SK-MEL-28
  GI50: 3.05 µM
[1]; SK-MEL-28, read-out: LC50
  CC50: > 100 µM
[1]; SK-OV-3
  GI50: 19 µM
[1]; SK-OV-3, read-out: LC50
  CC50: > 100 µM
[1]; SN12C, read-out: LC50
  CC50: > 100 µM
[1]; SNB-19
  GI50: 7.95 µM
[1]; SNB-19, read-out: LC50
  CC50: > 100 µM
[1]; SNB-75
  GI50: 1.84 µM
[1]; SNB-75, read-out: LC50
  CC50: > 100 µM
[1]; SW-620
  GI50: 8.4 µM
[1]; SW-620, read-out: LC50
  CC50: > 100 µM
[1]; T47D
  GI50: 10.3 µM
[1]; T47D, read-out: LC50
  CC50: > 100 µM
[1]; TK-10
  GI50: > 100 µM
[1]; TK-10, read-out: LC50
  CC50: > 100 µM
[1]; U-251
  GI50: 2.23 µM
[1]; U-251, read-out: LC50
  CC50: > 100 µM
[1]; UACC-62
  GI50: 2.43 µM
[1]; UACC-62, read-out: LC50
  CC50: > 100 µM
[1]; UACC-257
  GI50: 11.9 µM
[1]; UACC-257, read-out: LC50
  CC50: > 100 µM
[1]; UO-31
  GI50: 2.48 µM
[1]; UO-31, read-out: LC50
  CC50: > 100 µM
HCT-15 (Colon Cancer)
  Growth Percent: 29.48%

## C[C@]12CCc3nc(N)sc3C1=CC[C@@H]1[C@@H]2CC[C@]2(C)C(=NNC(N)=O)CC[C@@H]12 [IVb.1]
Gliosarcoma (SF-539); SF-539 (CNS Cancer), five dose
  GI50: 2.05 µM
  TGI: 5.23E−6
Gliosarcoma (SF-539); read-out: LC50, SF-539 (CNS Cancer), five dose
  CC50: 19.8 µM
HCT-15 (Colon Cancer)
  Growth Percent: −47.82%
